Our source for the melting point values is patent publication US7384933B2, “Derivatives of 2-hydroxytetrahydrofuran and their use as medicaments” (priority 2003, dated 2008).

For the molecule `CC(C)C[C@H](NC(=O)[C@@H](NC(=O)COc1ccc2c(c1)Nc1ccccc1S2)c1ccccc1)C(=O)N[C@H]1CCOC1O` (stereo partly drawn) [Example 52, N^1-[(3S)-2-hydroxytetrahydrofuran-3-yl]-N^2-((2S)-2-{[(10H-phenothiazin-2-yloxy)acetyl]amino}-2-phenylethanoyl)-L-leucinamide], the melting point (as a rule, the temperature of the solid-liquid transition) fell in the range of 137 to 138 °C. As for `CC(C)C[C@H](NC(=O)[C@H](CO)NC(=O)COc1ccc2c(c1)Nc1ccccc1S2)C(=O)N[C@H]1CCOC1O` (stereo partly drawn) [Example 50, N-[(10H-phenothiazin-2-yloxy)acetyl]-L-seryl-N^1-[(3S)-2-hydroxytetrahydrofuran-3-yl]-L-leucinamide], the melting point lay within 128 to 130 °C.
